The test has as its target T1, rh integrin α4β7 (Homo sapiens, UniProt P13612+P26010).
T1 construct: purchased R&D Systems 5397-A30
T1 sequence (P13612 34-977 limits assumed): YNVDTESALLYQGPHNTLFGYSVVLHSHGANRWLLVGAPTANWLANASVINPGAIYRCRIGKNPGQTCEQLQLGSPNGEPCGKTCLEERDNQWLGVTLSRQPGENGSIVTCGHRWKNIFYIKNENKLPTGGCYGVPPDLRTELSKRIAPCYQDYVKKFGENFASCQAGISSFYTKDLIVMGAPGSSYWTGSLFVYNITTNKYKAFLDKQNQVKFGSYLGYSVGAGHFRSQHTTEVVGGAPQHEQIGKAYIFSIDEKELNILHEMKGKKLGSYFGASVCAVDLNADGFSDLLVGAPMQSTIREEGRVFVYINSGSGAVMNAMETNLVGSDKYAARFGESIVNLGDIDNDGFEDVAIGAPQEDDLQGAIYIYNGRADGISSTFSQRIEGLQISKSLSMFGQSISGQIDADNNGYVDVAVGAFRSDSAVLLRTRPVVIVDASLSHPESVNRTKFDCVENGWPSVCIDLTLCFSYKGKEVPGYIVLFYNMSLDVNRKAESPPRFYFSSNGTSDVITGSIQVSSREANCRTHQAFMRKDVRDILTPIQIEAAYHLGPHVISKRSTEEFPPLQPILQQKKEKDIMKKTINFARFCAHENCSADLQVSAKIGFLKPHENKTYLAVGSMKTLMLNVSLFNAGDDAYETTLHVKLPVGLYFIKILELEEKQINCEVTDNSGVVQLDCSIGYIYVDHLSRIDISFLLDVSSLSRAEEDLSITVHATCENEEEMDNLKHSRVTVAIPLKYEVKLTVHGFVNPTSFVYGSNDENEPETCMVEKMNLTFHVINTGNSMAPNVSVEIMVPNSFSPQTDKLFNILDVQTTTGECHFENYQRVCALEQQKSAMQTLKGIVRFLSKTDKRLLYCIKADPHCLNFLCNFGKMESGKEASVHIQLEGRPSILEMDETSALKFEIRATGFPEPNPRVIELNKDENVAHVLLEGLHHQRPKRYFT
T1 sequence (P26010 20-723 limits assumed): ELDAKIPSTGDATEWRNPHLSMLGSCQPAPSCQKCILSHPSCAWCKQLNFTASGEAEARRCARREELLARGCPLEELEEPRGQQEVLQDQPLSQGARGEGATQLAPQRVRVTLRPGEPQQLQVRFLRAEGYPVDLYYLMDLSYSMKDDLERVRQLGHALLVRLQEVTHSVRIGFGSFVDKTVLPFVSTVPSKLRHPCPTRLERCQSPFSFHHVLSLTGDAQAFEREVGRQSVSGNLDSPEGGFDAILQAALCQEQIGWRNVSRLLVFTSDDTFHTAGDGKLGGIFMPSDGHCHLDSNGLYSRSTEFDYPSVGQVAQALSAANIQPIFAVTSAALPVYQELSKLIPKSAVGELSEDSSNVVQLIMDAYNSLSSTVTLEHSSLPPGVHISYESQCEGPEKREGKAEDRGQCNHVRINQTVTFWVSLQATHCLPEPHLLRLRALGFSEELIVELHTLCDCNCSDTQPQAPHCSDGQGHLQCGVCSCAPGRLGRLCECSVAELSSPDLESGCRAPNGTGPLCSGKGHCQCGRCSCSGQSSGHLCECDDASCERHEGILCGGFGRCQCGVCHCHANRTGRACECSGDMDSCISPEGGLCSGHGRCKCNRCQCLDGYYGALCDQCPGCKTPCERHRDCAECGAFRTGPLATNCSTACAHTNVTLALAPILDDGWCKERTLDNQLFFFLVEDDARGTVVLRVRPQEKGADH
As to the kind of experiment: α4β7-MAdCAM Competition ELISA. The test is classed as binding. The note with it: thioether peptide dimers, Table 7; read-out: ELISA A4B7. The essentials: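 Recombinant human α4β7 captured on nickel-coated plates, then incubated 1 h at room temperature with serially diluted peptides (final top 10 μM) and 10 nM final MAdCAM-1 in Tris pH 7.6 buffer with 1 mM MnCl2 or MgCl2. Bound MAdCAM-1 detected with anti-human IgG1-HRP and TMB, absorbance at 450 nm.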
A general note: ELISA stands for enzyme-linked immunosorbent assay.

Molecules are shown by their SMILES. *1 amine or outer side, *2 acyl side, *3 side chain or, on linkers, in order; H or OH if unused. Where a SMILES comes first, the peptide text is derived from it. Bridges are numbered along the chain shown (N, C = ends). Roman numbers before positions name the chains, in order. [ ]: non-standard residue; d: D form. Bip = N[C@@H](Cc1ccc(-c2ccccc2)cc1)C(=O)O; Diglycolyl = O=C(COCC(=O)[*:2])[*:1]; NMeR = CN[C@@H](CCCNC(=N)N)C(=O)O; Tic = O=C(O)[C@@H]1Cc2ccccc2CN1; X1 = O=C(c1ccccc1C[*:2])[*:1]; Pen = CC(C)(S)[C@H](N)C(=O)O Bounds are passed on as bounds.

Results on five compounds are retold here after patent publication US20260217767A1, “NOVEL A4B7 THIOETHER PEPTIDE DIMER ANTAGONISTS” (Protagonist Therapeutics, Inc., priority 2014, published 2026).

Turning to `CC(C)C[C@@H]1NC(=O)[C@H]([C@@H](C)O)NC(=O)[C@H](CC(=O)O)NC(=O)[C@H](CO)NC(=O)[C@H](CCCNC(=N)N)N(C)C(=O)c2ccccc2CSC[C@@H](C(=O)N2Cc3ccccc3C[C@H]2C(=O)N[C@H](CCC(=O)O)C(=O)N[C@H](CCCCNC(=O)COCC(=O)NCCCC[C@@H](NC(=O)[C@@H](CCC(=O)O)NC(=O)[C@@H]2Cc3ccccc3CN2C(=O)[C@@H]2CSCc3ccccc3C(=O)N(C)[C@@H](CCCNC(=N)N)C(=O)N[C@@H](CO)C(=O)N[C@@H](CC(=O)O)C(=O)N[C@@H]([C@@H](C)O)C(=O)N[C@@H](CC(C)C)C(=O)N2)C(N)=O)C(N)=O)NC1=O` [compound 184] (I: [NMeR]SDTLC[Tic][dE][dK]-NH2 / II: [NMeR]SDTLC[Tic][dE][dK]-NH2; linker I:9-II:9 via Diglycolyl; linker I:N-I:6, II:N-II:6 via X1), the IC50 is less than 25 nM. For the compound `CC(C)C[C@@H]1NC(=O)[C@H]([C@@H](C)O)NC(=O)[C@H](CC(=O)O)NC(=O)[C@H](CO)NC(=O)[C@H](CCCNC(=N)N)N(C)C(=O)c2ccccc2CSC(C)(C)[C@@H](C(=O)N[C@@H](Cc2ccccc2)C(=O)N[C@H](CCC(=O)O)C(=O)N[C@H](CCCCNC(=O)COCC(=O)NCCCC[C@@H](NC(=O)[C@@H](CCC(=O)O)NC(=O)[C@H](Cc2ccccc2)NC(=O)[C@H]2NC(=O)[C@H](CC(C)C)NC(=O)[C@H]([C@@H](C)O)NC(=O)[C@H](CC(=O)O)NC(=O)[C@H](CO)NC(=O)[C@H](CCCNC(=N)N)N(C)C(=O)c3ccccc3CSC2(C)C)C(=O)O)C(=O)O)NC1=O` [compound 204] (I: [NMeR]SDTL[Pen]F[dE][dK]-OH / II: [NMeR]SDTL[Pen]F[dE][dK]-OH; linker I:9-II:9 via Diglycolyl; linker I:N-I:6, II:N-II:6 via X1), the IC50 is less than 25 nM. Under `CC(C)C[C@@H]1NC(=O)[C@H]([C@@H](C)O)NC(=O)[C@H](CC(=O)O)NC(=O)[C@H](CO)NC(=O)[C@H](CCCNC(=N)N)N(C)C(=O)c2ccccc2CSC[C@@H](C(=O)N2Cc3ccccc3C[C@H]2C(=O)N[C@H](CCC(=O)O)C(=O)N[C@H](CCCCNC(=O)COCC(=O)NCCCC[C@@H](NC(=O)[C@@H](CCC(=O)O)NC(=O)[C@@H]2Cc3ccccc3CN2C(=O)[C@@H]2CSCc3ccccc3C(=O)N(C)[C@@H](CCCNC(=N)N)C(=O)N[C@@H](CO)C(=O)N[C@@H](CC(=O)O)C(=O)N[C@@H]([C@@H](C)O)C(=O)N[C@@H](CC(C)C)C(=O)N2)C(=O)O)C(=O)O)NC1=O` [compound 207] (I: [NMeR]SDTLC[Tic][dE][dK]-OH / II: [NMeR]SDTLC[Tic][dE][dK]-OH; linker I:9-II:9 via Diglycolyl; linker I:N-I:6, II:N-II:6 via X1) stands less than 25 nM; under `CC(C)C[C@@H]1NC(=O)[C@H]([C@@H](C)O)NC(=O)[C@H](CC(=O)O)NC(=O)[C@H](CO)NC(=O)[C@H](CCCNC(=N)N)N(C)C(=O)c2ccccc2CSC(C)(C)[C@@H](C(=O)N[C@@H](Cc2ccc(-c3ccccc3)cc2)C(=O)N[C@H](CCC(=O)O)C(=O)N[C@H](CCCCNC(=O)COCC(=O)NCCCC[C@@H](NC(=O)[C@@H](CCC(=O)O)NC(=O)[C@H](Cc2ccc(-c3ccccc3)cc2)NC(=O)[C@H]2NC(=O)[C@H](CC(C)C)NC(=O)[C@H]([C@@H](C)O)NC(=O)[C@H](CC(=O)O)NC(=O)[C@H](CO)NC(=O)[C@H](CCCNC(=N)N)N(C)C(=O)c3ccccc3CSC2(C)C)C(=O)O)C(=O)O)NC1=O` [compound 208] (I: [NMeR]SDTL[Pen][Bip][dE][dK]-OH / II: [NMeR]SDTL[Pen][Bip][dE][dK]-OH; linker I:9-II:9 via Diglycolyl; linker I:N-I:6, II:N-II:6 via X1), less than 25 nM; under `CC(C)C[C@@H]1NC(=O)[C@H]([C@@H](C)O)NC(=O)[C@H](CC(=O)O)NC(=O)[C@H](CO)NC(=O)[C@H](CCCNC(=N)N)N(C)C(=O)c2ccccc2CSC(C)(C)[C@@H](C(=O)N[C@@H](Cc2c[nH]c3ccccc23)C(=O)N[C@H](CCC(=O)O)C(=O)N[C@H](CCCCNC(=O)COCC(=O)NCCCC[C@@H](NC(=O)[C@@H](CCC(=O)O)NC(=O)[C@H](Cc2c[nH]c3ccccc23)NC(=O)[C@H]2NC(=O)[C@H](CC(C)C)NC(=O)[C@H]([C@@H](C)O)NC(=O)[C@H](CC(=O)O)NC(=O)[C@H](CO)NC(=O)[C@H](CCCNC(=N)N)N(C)C(=O)c3ccccc3CSC2(C)C)C(=O)O)C(=O)O)NC1=O` [compound 209] (I: [NMeR]SDTL[Pen]W[dE][dK]-OH / II: [NMeR]SDTL[Pen]W[dE][dK]-OH; linker I:9-II:9 via Diglycolyl; linker I:N-I:6, II:N-II:6 via X1), less than 25 nM.
